Results taken from ChEMBL document CHEMBL3351729, “Discovery of indanone derivatives as multi-target-directed ligands against Alzheimer's disease” (Eur J Med Chem, 2014).
The source made the active and inactive calls. The calls are words filed in the database; no cut-off is given here.

Tests used:
[1] = molecular target: Acetylcholinesterase (Electrophorus electricus, UniProt O42275); assay: Inhibition of electric eel AChE preincubated for 15 mins by Ellman's method
[2] = molecular target: Amyloid-beta precursor protein (Homo sapiens) (UniProt P05067); assay: Inhibition of amyloid beta (1-42) self-mediated aggregation (unknown origin) at 20 uM after 48 hrs by thioflavin T fluorescence method
Chain of Amyloid-beta precursor protein (Homo sapiens) (P05067 whole entry): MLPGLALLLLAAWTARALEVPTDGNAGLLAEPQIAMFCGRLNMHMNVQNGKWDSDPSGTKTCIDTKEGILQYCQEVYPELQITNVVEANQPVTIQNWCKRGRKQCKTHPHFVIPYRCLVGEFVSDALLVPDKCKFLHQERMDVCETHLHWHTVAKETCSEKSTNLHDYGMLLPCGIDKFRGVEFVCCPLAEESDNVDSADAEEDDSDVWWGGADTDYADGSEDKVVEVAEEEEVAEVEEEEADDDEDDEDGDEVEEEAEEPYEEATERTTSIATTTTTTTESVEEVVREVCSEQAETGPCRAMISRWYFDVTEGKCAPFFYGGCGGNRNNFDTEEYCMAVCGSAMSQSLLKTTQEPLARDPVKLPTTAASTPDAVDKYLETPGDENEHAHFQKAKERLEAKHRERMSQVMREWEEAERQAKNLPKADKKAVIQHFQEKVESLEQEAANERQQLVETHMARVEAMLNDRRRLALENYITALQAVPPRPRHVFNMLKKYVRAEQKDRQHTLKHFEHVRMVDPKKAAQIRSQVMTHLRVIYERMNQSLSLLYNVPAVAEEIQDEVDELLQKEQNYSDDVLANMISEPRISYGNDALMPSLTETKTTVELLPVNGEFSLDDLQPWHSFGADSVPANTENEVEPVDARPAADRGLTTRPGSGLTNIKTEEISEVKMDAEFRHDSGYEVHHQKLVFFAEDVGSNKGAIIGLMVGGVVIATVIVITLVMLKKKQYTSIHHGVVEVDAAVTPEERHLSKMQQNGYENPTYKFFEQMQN

[3] = molecular target: Butyrylcholinesterase (Equus caballus, UniProt Q9N1N9)
Chain of Butyrylcholinesterase (Q9N1N9 whole entry): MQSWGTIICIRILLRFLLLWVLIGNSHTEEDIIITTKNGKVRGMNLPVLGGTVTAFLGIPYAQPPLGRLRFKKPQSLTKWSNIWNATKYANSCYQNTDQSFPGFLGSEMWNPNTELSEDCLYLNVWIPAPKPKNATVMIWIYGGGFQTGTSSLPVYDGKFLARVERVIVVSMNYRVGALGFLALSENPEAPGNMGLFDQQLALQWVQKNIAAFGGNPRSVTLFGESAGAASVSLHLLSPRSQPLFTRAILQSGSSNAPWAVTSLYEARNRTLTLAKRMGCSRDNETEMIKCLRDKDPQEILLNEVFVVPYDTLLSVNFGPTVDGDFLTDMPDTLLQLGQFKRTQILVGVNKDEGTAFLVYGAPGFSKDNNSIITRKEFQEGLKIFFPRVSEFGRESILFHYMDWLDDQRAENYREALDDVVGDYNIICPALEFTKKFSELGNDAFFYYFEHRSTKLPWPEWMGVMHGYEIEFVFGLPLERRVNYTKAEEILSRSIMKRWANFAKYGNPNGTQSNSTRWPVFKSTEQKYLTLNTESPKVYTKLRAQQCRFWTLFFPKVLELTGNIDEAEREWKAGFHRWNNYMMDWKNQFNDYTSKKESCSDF
Description: Inhibition of equine BChE preincubated for 15 mins by Ellman's method

[4] = molecular target: Acetylcholinesterase (Homo sapiens, UniProt P22303); assay: Inhibition of human erythrocyte AChE preincubated for 15 mins by Ellman's method
Chain of Acetylcholinesterase (Homo sapiens, UniProt P22303) (P22303 whole entry): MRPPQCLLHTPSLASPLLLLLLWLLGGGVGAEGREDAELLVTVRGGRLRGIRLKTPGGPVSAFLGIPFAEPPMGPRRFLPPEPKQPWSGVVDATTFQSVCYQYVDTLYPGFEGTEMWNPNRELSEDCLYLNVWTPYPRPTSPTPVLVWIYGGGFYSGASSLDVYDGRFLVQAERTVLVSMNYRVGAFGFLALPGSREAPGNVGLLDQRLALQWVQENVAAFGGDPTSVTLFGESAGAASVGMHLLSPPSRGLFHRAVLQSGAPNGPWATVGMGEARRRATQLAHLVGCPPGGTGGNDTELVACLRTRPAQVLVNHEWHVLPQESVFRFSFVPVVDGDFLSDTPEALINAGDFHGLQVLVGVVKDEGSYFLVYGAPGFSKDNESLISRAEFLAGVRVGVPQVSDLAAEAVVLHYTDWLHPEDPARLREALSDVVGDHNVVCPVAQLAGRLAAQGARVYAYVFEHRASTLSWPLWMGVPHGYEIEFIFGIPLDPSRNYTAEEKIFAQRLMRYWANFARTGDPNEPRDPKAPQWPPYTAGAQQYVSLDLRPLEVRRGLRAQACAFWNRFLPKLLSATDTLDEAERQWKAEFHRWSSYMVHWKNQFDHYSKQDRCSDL

[5] = molecular target: Amyloid-beta precursor protein (Homo sapiens) (UniProt P05067); assay: Disaggregation of amyloid beta (1-42) fibrils (unknown origin) at 20 uM after 24 hrs by transmission electron microscopy
[6] = molecular target: Amyloid-beta precursor protein (Homo sapiens) (UniProt P05067); assay: Disaggregation of amyloid beta (1-42) fibrils (unknown origin) at 20 uM after 24 hrs by thioflavin T fluorescence method
[7] = molecular target: Amyloid-beta precursor protein (Homo sapiens) (UniProt P05067); assay: Inhibition of amyloid beta (1-42) (unknown origin) fibril formation at 20 uM after 24 hrs by transmission electron microscopy

Chain of Acetylcholinesterase (Electrophorus electricus, UniProt O42275) (O42275 whole entry): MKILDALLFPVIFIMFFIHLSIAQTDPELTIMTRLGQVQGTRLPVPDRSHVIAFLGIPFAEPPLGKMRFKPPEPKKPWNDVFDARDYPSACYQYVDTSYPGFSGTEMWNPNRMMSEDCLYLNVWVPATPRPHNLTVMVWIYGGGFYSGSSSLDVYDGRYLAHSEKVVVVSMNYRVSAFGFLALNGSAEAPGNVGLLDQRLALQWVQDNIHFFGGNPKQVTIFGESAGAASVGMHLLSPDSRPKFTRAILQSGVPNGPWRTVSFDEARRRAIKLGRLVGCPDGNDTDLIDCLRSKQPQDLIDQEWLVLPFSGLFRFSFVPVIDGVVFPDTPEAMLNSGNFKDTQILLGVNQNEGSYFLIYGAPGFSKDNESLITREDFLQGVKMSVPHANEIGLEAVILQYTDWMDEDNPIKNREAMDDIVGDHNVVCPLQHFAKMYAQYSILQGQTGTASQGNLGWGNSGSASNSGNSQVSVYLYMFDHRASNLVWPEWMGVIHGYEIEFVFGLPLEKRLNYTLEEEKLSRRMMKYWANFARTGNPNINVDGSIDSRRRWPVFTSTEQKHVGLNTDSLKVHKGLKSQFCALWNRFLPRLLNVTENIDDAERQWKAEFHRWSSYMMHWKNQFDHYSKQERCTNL

Q: What does the source list for `COc1ccc(/C=C2\Cc3cc(OC)c(OCCN4CCCCC4)cc3C2=O)cc1`?
A: IC50 [1]: 14.8 nM; inhibition [2]: inactive; IC50 [3]: 3210 nM

Q: With `CCN(C)c1ccc(/C=C2\Cc3cc(OC)c(OCCN4CCCCC4)cc3C2=O)cc1` as the compound, how does the IC50 [1] read?
A: 25.5 nM

Q: What about the inhibition [2] of the same compound?
A: 85.2%

Q: What about the IC50 [3] of the same compound?
A: 1270 nM

Q: What about the IC50 [4] of the same compound?
A: 426 nM

Q: How did the IC50 [1] turn out when `CNc1ccc(/C=C2\Cc3cc(OC)c(OCCN4CCCCC4)cc3C2=O)cc1` was run?
A: 16.8 nM

Q: What about the IC50 [3] of the same compound?
A: 1640 nM

Q: What about the IC50 [4] of the same compound?
A: 301 nM

Q: For `COc1cc2c(cc1OCCCNC1CCCCC1)C(=O)/C(=C/c1ccc(N(C)C)cc1)C2`, which IC50 [1] is on record?
A: 1540 nM

Q: And the IC50 [3]?
A: 1330 nM

Q: What does the source list for `COc1cc2c(cc1OCCN1CCCCC1)C(=O)/C(=C/c1ccc(N(C)C)cc1)C2`?
A: IC50 [1]: 16.5 nM; IC50 [3]: 1490 nM; IC50 [4]: 285 nM

Q: For `CCN(CC)c1ccc(/C=C2\Cc3cc(OC)c(OCCCN4CCCCC4)cc3C2=O)cc1`, which IC50 [1] is on record?
A: 371 nM

Q: And the IC50 [3]?
A: 2820 nM

Q: With `CCCN(C)c1ccc(/C=C2\Cc3cc(OC)c(OCCN4CCCCC4)cc3C2=O)cc1` as the compound, how does the IC50 [1] read?
A: 18.6 nM

Q: And the inhibition [2]?
A: 83.8%

Q: What about the Activity [5] of the same compound?
A: Active

Q: And the Activity [6]?
A: 73.8%

Q: What about the inhibition [7] of the same compound?
A: Active

Q: And the IC50 [3]?
A: 1420 nM

Q: And the IC50 [4]?
A: 390 nM

Q: With `COc1cc2c(cc1OCCCN1CCCCC1)C(=O)/C(=C/c1ccc(N(C)C)cc1)C2` as the compound, how does the IC50 [1] read?
A: 330 nM

Q: What about the IC50 [3] of the same compound?
A: 1460 nM

Q: `CCN(CC)c1ccc(/C=C2\Cc3cc(OC)c(OCCCCCN4CCCCC4)cc3C2=O)cc1` was tested. Which IC50 [1] did it give?
A: 5730 nM

Q: What about the IC50 [3] of the same compound?
A: 2840 nM

Q: `COc1cc2c(cc1OCCNC1CCCCC1)C(=O)/C(=C/c1ccc(N(C)C)cc1)C2` was tested. Which IC50 [1] did it give?
A: 102 nM

Q: What about the inhibition [2] of the same compound?
A: 84.3%

Q: What about the IC50 [3] of the same compound?
A: 363 nM

Q: Which IC50 [1] does the source give for `COc1cc2c(cc1OCCCCCN1CCCCC1)C(=O)/C(=C/c1ccc(N(C)C)cc1)C2` here?
A: 1030 nM

Q: What about the IC50 [3] of the same compound?
A: 2440 nM

Q: What does the source list for `CCCN(CCC)c1ccc(/C=C2\Cc3cc(OC)c(OCCN4CCCCC4)cc3C2=O)cc1`?
A: IC50 [1]: 14.6 nM; IC50 [3]: 1770 nM; IC50 [4]: 954 nM

Q: Which IC50 [1] does the source give for `CCN(CC)c1ccc(/C=C2\Cc3cc(OC)c(OCCN4CCCCC4)cc3C2=O)cc1` here?
A: 14.8 nM

Q: And the inhibition [2]?
A: 85.5%

Q: What about the Activity [5] of the same compound?
A: Active

Q: What about the Activity [6] of the same compound?
A: 65%

Q: And the inhibition [7]?
A: Active

Q: What about the IC50 [3] of the same compound?
A: 1380 nM

Q: And the IC50 [4]?
A: 536 nM

Q: `COc1cc2c(cc1OCCCCNC1CCCCC1)C(=O)/C(=C/c1ccc(N(C)C)cc1)C2` was tested. Which IC50 [1] did it give?
A: 9180 nM

Q: And the IC50 [3]?
A: 1130 nM
